Measured values from patent publication US9918916B2, “Active ingredient comprising a mixture of unsaturated dicarboxylic fatty acids, compositions comprising said ingredient and cosmetic or dermatological uses” (SEDERMA, priority 2014, dated 2018).

Tests used:
Assay type in all cases: cell-based
hyaluronic acid = test: Synthesis of hyaluronic acid by human keratinocytes; conditions: 1 μm
Method: Human keratinocytes are cultured for 24 h. The cells are contacted with the products to be tested or their excipient for 3 days. The culture supernatants are recovered and a dosage of the amount of hyaluronic acid is achieved. Retinoic acid is used as a positive control. Quantification of cells present on the layer is carried out with the DNA dye (Hoechst 33258), so as to adjust the dosages to the number of cells.

normal human melanocytes = test: Inhibition of melanin synthesis on human melanocytes; conditions: 0.01%
Method: Normal human melanocytes are cultured in their maintenance medium and then contacted with the products to be tested in the test medium for 10 days. After the contact, melanins are extracted from the cells and assayed by spectrophotometry (490 nm). An estimate of cell number is performed after cultivation using a protein assay by the BCA method. Melanin concentrations are normalized by the sample protein content.

G3PDH = G3PDH activity on human adipocytes; conditions: 10 μm
Method: In this perspective, in vitro tests aiming to show an increase in adipocyte differentiation (with glycerol-3-phosphate dehydrogenase or G3PDH as the key enzyme of this differentiation) on pre-adipocyte cultures were implemented. Other in vitro assays seek to show slower lipolysis on adipocyte cultures to validate the effectiveness of these compounds. Human pre-adipocytes are seeded and induced to differentiate with a specific mixture of inducers (without indomethacine*) in the presence or absence (negative control) of the products to be tested. After 10 days, the cultures are stopped and the residual […] activity is measured by spectrophotometry on a cellular lysate. […] Results

For `CC1=C(/C=C/C(C)=C/C=C/C(C)=C/C(=O)O)C(C)(C)CCC1` [Retinoic Acid], the “stimulation of hyaluronic acid synthesis vs. control (positive control)” value (hyaluronic acid) was “+106%”.

`OC[C@H]1O[C@@H](Oc2ccc(O)cc2)[C@H](O)[C@@H](O)[C@@H]1O` [arbutine] was tested, and the “inhibition compared to the control (melanin, positive reference)” value (normal human melanocytes) was 33%.

For `CCc1ccc(CCOc2ccc(CC3SC(=O)NC3=O)cc2)nc1` (stereo not drawn) [Pioglytazone], the “stimulation of G3PDH activity vs. control (positive control)” value (G3PDH) was “+712%”.
